Data from ChEMBL document CHEMBL5291721, “A preclinical secondary pharmacology resource illuminates target-adverse drug reaction associations of marketed drugs” (Nat Commun, 2023).

Legend:
[1] = molecular target: Neuronal acetylcholine receptor subunit alpha-4 (Homo sapiens, UniProt P43681)
[2] = molecular target: T1, 5-hydroxytryptamine receptor 2C (Homo sapiens, UniProt P28335)
T1 sequence (P28335 whole entry): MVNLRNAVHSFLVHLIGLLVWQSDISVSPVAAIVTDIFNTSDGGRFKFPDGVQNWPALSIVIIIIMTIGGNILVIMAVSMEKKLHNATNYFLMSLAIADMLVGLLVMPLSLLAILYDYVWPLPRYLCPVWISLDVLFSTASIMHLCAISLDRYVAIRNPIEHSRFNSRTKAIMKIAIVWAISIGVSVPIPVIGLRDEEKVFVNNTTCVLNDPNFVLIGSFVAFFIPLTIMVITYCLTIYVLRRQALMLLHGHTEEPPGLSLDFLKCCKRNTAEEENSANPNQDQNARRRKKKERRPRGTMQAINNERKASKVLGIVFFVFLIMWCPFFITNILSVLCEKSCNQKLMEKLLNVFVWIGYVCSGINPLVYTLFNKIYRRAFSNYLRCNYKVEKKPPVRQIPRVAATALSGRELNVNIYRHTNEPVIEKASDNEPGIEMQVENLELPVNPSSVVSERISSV

Cannabinoid receptor 1 = Cannabinoid receptor 1 (Homo sapiens, UniProt P21554); assay type: functional, cell-based
[3] = molecular target: T2, Amine oxidase [flavin-containing] A (Homo sapiens, UniProt P21397); assay type: functional
T2 sequence (P21397 whole entry): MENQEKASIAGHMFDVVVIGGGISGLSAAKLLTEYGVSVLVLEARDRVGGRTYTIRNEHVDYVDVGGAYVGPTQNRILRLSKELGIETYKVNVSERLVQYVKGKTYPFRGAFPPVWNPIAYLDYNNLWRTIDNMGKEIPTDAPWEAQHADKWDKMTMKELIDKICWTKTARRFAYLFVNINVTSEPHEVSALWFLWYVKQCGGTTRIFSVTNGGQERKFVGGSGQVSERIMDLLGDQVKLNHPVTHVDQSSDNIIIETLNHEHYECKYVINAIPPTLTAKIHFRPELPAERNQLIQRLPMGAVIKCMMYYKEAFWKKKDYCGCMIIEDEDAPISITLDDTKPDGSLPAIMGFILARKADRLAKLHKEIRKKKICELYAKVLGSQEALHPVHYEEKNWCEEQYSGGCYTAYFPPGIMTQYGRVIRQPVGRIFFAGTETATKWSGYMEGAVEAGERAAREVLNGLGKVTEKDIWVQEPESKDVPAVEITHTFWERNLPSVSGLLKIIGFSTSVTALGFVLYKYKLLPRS

Adenosine receptor A1 = molecular target: T3, Adenosine receptor A1 (Homo sapiens, UniProt P30542)
T3 sequence (P30542 whole entry): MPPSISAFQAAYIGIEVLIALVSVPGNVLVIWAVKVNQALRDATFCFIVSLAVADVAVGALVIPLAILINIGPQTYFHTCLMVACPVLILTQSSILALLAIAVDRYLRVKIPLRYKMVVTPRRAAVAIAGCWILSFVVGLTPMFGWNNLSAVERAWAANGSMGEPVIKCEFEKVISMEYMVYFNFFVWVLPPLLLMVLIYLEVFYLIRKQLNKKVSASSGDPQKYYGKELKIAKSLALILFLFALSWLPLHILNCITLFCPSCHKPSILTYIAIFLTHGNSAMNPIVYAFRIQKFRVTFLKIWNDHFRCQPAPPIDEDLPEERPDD

Histamine H2 receptor = Histamine H2 receptor (Homo sapiens, UniProt P25021); assay type: functional, cell-based
[4] = molecular target: T4, Alpha-2A adrenergic receptor (Homo sapiens, UniProt P08913); assay type: functional, cell-based
T4 sequence (P08913 whole entry): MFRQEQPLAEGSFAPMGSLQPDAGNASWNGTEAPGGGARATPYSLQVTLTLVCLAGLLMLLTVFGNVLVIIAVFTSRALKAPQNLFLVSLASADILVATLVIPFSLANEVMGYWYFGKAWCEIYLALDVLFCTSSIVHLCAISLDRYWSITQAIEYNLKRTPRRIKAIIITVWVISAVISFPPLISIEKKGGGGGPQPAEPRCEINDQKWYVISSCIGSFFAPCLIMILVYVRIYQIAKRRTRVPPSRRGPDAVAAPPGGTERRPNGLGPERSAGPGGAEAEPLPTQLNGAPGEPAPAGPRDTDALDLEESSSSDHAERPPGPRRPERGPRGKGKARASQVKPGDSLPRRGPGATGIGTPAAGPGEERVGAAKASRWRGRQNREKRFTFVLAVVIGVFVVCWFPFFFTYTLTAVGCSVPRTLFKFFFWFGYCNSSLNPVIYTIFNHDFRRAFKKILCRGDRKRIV

Melanocortin receptor 4 = Melanocortin receptor 4 (Homo sapiens, UniProt P32245)
[5] = molecular target: Voltage-dependent L-type calcium channel subunit alpha-1C (Rattus norvegicus, UniProt P22002); assay type: functional
[6] = molecular target: Sodium-dependent dopamine transporter (Homo sapiens, UniProt Q01959)
[7] = molecular target: cGMP-inhibited 3',5'-cyclic phosphodiesterase 3A (Homo sapiens, UniProt Q14432); assay type: functional
[8] = molecular target: Growth hormone secretagogue receptor type 1 (Homo sapiens, UniProt Q92847)
[9] = molecular target: T5, Alpha-1A adrenergic receptor (Homo sapiens, UniProt P35348)
T5 sequence (P35348 whole entry): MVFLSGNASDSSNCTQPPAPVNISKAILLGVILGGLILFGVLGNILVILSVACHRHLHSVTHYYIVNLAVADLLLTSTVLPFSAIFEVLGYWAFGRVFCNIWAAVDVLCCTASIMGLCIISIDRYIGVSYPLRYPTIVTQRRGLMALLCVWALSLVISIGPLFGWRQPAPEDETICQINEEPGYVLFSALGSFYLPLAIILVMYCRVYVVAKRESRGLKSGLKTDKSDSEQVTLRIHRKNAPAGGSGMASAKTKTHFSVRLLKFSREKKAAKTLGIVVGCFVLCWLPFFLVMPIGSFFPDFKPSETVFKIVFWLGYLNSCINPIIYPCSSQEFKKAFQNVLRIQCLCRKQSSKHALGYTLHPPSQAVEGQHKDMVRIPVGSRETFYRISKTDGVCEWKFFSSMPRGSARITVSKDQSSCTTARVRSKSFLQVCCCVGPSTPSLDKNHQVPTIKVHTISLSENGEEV

[10] = molecular target: T5, Alpha-1A adrenergic receptor; assay type: functional, cell-based
[11] = molecular target: 5-hydroxytryptamine receptor 2B (Homo sapiens, UniProt P41595); assay type: functional, cell-based

Measured: AC50
Also: assay procedure not described here.

Histamine H2 receptor, sequence (P25021 whole entry): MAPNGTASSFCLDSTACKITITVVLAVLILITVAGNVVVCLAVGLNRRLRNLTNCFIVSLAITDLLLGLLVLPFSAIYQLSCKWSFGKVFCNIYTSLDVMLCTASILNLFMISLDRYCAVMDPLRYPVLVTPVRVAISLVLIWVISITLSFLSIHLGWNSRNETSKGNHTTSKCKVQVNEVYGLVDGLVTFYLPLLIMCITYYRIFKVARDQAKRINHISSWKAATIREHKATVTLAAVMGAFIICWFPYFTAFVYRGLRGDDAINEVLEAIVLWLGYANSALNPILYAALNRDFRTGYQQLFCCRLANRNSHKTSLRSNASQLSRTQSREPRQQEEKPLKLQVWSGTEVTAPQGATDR
Growth hormone secretagogue receptor type 1, sequence (Q92847 whole entry): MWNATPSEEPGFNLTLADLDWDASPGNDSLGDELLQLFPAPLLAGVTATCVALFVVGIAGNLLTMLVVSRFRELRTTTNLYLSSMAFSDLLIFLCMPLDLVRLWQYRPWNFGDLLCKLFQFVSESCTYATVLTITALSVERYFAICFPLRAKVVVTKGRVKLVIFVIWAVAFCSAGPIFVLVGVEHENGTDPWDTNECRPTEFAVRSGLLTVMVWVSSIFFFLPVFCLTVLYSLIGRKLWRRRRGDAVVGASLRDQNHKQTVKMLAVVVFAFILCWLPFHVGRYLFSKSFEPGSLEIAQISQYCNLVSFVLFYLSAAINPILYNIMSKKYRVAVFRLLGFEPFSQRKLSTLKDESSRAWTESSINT
Sodium-dependent dopamine transporter, sequence (Q01959 whole entry): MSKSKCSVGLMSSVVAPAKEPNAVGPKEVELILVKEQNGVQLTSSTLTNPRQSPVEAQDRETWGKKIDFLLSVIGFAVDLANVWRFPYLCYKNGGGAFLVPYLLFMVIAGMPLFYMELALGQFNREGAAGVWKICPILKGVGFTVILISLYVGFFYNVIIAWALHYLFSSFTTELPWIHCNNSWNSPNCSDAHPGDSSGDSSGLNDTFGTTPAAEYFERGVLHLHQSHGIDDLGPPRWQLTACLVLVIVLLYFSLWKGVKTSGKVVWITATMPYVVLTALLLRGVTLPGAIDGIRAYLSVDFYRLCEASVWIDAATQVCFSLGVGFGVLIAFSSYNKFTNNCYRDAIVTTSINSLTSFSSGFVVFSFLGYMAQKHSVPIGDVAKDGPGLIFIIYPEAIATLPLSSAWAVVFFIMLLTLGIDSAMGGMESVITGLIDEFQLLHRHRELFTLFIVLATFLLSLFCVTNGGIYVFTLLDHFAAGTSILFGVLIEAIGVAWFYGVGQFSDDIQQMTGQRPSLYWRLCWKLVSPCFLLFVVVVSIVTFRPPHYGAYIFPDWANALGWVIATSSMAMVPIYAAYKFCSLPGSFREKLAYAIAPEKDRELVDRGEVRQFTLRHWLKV
Voltage-dependent L-type calcium channel subunit alpha-1C, sequence (P22002 whole entry): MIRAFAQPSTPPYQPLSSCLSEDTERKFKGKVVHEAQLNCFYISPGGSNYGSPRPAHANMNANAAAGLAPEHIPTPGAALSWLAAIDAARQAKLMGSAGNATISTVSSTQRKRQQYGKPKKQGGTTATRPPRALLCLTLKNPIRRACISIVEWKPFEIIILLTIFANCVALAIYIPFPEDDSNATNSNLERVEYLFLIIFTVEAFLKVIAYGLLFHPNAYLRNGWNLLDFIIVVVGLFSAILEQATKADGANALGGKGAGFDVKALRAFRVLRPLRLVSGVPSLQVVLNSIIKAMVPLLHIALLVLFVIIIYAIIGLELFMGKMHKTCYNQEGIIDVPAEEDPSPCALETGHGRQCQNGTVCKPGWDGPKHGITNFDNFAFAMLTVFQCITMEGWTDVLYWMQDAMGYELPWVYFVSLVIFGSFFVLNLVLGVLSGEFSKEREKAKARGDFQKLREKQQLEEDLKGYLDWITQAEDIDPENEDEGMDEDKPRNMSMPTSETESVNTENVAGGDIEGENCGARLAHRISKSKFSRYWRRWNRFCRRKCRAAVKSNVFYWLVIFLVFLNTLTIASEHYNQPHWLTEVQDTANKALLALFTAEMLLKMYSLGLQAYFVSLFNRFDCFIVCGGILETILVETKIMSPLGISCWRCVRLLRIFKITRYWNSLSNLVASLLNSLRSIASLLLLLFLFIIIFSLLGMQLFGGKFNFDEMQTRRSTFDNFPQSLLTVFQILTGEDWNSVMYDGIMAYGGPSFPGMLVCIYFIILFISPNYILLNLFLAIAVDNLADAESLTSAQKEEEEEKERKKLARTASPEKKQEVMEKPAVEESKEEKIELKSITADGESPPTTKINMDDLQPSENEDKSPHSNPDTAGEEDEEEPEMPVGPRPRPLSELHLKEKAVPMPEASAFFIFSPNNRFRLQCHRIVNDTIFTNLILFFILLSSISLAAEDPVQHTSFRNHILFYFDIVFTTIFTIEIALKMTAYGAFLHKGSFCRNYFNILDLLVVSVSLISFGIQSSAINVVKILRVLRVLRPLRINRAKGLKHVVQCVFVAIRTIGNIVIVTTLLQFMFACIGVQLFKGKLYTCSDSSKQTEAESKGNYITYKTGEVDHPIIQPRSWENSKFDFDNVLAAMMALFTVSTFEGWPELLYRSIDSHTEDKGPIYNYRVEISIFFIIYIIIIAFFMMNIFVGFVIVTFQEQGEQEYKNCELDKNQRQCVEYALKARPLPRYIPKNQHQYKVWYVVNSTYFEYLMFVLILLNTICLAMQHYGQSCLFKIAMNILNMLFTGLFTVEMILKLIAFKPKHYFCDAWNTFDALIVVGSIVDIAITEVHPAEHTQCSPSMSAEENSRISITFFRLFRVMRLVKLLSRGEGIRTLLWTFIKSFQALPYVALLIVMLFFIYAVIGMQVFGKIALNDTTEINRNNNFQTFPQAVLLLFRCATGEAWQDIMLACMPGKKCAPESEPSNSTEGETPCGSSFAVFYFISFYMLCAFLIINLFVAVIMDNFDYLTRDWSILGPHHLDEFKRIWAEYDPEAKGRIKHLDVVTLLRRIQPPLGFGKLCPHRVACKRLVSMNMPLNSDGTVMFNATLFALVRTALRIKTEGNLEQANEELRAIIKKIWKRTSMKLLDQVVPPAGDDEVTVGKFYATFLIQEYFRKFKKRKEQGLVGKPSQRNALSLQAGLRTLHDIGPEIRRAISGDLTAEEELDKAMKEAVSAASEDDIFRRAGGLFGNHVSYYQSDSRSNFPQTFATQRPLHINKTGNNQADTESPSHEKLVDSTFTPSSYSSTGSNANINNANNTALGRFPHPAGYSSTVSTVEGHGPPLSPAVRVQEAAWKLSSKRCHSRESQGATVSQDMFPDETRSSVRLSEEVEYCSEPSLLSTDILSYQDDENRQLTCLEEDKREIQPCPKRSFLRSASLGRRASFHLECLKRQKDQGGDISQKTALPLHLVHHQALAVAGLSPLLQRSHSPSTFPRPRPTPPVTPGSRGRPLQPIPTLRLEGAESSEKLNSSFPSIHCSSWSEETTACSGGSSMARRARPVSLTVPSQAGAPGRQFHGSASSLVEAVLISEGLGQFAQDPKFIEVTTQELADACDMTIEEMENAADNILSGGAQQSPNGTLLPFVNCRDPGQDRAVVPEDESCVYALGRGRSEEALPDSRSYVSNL
Cannabinoid receptor 1, sequence (P21554 whole entry): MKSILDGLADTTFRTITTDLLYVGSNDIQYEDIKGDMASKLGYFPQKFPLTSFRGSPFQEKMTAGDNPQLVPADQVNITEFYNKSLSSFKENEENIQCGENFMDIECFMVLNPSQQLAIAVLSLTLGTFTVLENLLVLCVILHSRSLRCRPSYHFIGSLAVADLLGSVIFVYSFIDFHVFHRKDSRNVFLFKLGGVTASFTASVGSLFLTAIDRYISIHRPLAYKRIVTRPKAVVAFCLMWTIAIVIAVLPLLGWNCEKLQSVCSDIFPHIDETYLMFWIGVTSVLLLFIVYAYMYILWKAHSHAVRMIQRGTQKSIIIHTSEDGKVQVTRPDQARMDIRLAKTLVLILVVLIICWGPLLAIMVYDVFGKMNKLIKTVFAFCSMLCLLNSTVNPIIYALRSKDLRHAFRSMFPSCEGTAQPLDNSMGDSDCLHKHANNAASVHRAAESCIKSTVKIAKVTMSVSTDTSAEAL
Melanocortin receptor 4, sequence (P32245 whole entry): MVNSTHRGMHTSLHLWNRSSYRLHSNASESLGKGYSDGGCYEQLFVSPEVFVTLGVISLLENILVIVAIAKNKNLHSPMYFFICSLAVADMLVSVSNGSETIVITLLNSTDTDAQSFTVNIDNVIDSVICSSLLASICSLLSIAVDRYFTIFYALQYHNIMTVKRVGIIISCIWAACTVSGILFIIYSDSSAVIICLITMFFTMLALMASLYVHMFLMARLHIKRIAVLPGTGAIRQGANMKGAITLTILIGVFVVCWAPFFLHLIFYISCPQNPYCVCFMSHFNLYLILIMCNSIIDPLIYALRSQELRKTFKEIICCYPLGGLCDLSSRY
Neuronal acetylcholine receptor subunit alpha-4, sequence (P43681 whole entry): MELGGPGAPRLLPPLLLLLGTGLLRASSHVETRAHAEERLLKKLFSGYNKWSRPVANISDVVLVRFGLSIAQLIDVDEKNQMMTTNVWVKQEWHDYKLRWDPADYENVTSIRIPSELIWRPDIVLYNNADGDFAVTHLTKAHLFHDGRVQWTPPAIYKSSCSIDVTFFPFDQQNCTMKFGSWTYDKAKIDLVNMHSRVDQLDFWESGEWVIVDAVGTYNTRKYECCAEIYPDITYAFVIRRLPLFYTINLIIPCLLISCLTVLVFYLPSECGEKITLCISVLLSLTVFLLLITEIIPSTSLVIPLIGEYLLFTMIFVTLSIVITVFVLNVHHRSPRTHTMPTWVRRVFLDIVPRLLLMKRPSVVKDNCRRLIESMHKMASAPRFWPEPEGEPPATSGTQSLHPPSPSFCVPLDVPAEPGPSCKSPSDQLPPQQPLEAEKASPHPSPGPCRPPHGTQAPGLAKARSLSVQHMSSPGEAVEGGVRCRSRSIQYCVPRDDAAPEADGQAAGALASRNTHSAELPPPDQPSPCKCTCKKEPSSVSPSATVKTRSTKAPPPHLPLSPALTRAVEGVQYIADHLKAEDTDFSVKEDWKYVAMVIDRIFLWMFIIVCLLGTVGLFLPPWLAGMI

Oc1cc(O)c2c(c1)O[C@H](c1ccc(O)c(O)c1)[C@@H](O)C2 [CIANIDANOL]
> 30 µM: [2] | Cannabinoid receptor 1 | Adenosine receptor A1 | Melanocortin receptor 4 | [6] | [7] | [8] | [10]
> 10 µM: [1] | [3] | Histamine H2 receptor | [4] | [5] | [9] | [11]

C=C(c1ccccc1OCc1cccc(Cl)c1)n1ccnc1 [CROCONAZOLE]
15 µM: Cannabinoid receptor 1
18.8 µM: [5]
> 10 µM: [1] | [3] | Histamine H2 receptor | [4] | [11]
18 µM: [2]
9.4 µM: [9]
> 30 µM: Adenosine receptor A1 | Melanocortin receptor 4 | [6] | [7] | [8] | [10]

CCN(CC)C(C)C(=O)c1ccccc1 (centres undefined) [DIETHYLPROPION]
> 30 µM: [2] | Cannabinoid receptor 1 | Adenosine receptor A1 | Melanocortin receptor 4 | [6] | [7] | [8] | [10]
> 10 µM: [1] | [3] | Histamine H2 receptor | [4] | [5] | [9] | [11]

Cc1ccc(-c2ncc(Cl)cc2-c2ccc(S(C)(=O)=O)cc2)cn1 [ETORICOXIB]
> 10 µM: [1] | [2] | [3] | Adenosine receptor A1 | Histamine H2 receptor | [4] | Melanocortin receptor 4 | [5] | [6] | [7] | [8] | [9] | [11]
> 30 µM: Cannabinoid receptor 1 | [10]

CCOC(=O)C1=C(C)NC(C)=C(C(=O)OC)C1c1cccc(Cl)c1Cl (centres undefined) [FELODIPINE]
13 µM: [9]
> 10 µM: [1] | [2] | [3] | Histamine H2 receptor | [4] | [11]
0.0204 µM: [5]
13.3 µM: [6]
> 30 µM: Cannabinoid receptor 1 | Adenosine receptor A1 | Melanocortin receptor 4 | [7] | [8] | [10]

N=C(N)NC(=O)Cc1c(Cl)cccc1Cl [GUANFACINE]
7.64 µM: [9]
0.358 µM: [11]
> 30 µM: Cannabinoid receptor 1 | Adenosine receptor A1 | Histamine H2 receptor | Melanocortin receptor 4 | [5] | [6] | [7] | [8]
> 10 µM: [1]
0.0245 µM: [10]
6.88 µM: [3]
10 µM: [2]
